Measured values published in patent US11180474B2 (BRISTOL-MYERS SQUIBB COMPANY, priority 2016, dated 2021).

Columns and labels:
human TLR7 = target: T1, human TLR7 (Homo sapiens, UniProt Q9NYK1); experiment: TLR7 inhibition reporter assay (HEK-Blue cells, SEAP reporter, gardiquimod stimulation); type: cell-based; conditions: HEK-Blue cells overexpressing human TLR7, gardiquimod 7.5 μM
T1 construct: host or cells: HEK-Blue cells
T1 sequence (Q9NYK1 27-1049): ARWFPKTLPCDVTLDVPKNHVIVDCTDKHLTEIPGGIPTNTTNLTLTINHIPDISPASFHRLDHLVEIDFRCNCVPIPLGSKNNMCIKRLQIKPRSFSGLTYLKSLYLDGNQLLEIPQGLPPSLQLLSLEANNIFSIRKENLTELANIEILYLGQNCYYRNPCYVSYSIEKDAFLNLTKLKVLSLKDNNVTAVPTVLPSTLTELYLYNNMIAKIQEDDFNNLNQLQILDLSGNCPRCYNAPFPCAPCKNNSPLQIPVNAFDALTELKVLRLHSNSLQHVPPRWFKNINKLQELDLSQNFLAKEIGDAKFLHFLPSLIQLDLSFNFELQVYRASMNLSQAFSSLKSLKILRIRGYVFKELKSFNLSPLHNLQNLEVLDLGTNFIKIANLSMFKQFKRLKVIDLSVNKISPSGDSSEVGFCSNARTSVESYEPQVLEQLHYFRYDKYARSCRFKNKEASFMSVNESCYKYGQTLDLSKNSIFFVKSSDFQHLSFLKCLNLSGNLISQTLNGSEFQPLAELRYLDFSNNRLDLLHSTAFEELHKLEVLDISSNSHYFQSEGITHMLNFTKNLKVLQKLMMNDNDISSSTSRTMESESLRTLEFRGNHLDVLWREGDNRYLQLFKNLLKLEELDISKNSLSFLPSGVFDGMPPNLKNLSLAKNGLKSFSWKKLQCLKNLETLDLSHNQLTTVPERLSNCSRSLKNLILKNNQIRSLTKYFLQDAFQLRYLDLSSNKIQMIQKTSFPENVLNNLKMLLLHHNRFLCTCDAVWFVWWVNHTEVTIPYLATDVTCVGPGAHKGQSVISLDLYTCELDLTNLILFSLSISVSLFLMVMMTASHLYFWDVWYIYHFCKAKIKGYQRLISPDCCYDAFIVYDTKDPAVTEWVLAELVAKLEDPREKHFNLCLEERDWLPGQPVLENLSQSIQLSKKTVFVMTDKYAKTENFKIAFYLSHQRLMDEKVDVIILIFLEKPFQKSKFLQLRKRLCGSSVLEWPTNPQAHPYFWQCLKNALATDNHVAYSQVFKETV
Procedure, shortened: (§1)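 22 h, 37° C, 5% CO2 incubation; compounds 0.05 nM-50 μM final; TLR7 cells 15000/well, TLR8 20,000/well. Readout: SEAP via HEK-Blue Detection medium. % inhibition = signal reduction versus agonist + DMSO wells, referenced to known inhibitor.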

human TLR8 = target: T2, human TLR8 (Homo sapiens, UniProt Q9NR97); experiment: TLR8 inhibition reporter assay (HEK-Blue cells, SEAP reporter, R848 stimulation); type: cell-based; conditions: HEK-Blue cells overexpressing human TLR8, R848 15.9 μM
T2 construct: host or cells: HEK-Blue cells
T2 sequence (Q9NR97 27-1041): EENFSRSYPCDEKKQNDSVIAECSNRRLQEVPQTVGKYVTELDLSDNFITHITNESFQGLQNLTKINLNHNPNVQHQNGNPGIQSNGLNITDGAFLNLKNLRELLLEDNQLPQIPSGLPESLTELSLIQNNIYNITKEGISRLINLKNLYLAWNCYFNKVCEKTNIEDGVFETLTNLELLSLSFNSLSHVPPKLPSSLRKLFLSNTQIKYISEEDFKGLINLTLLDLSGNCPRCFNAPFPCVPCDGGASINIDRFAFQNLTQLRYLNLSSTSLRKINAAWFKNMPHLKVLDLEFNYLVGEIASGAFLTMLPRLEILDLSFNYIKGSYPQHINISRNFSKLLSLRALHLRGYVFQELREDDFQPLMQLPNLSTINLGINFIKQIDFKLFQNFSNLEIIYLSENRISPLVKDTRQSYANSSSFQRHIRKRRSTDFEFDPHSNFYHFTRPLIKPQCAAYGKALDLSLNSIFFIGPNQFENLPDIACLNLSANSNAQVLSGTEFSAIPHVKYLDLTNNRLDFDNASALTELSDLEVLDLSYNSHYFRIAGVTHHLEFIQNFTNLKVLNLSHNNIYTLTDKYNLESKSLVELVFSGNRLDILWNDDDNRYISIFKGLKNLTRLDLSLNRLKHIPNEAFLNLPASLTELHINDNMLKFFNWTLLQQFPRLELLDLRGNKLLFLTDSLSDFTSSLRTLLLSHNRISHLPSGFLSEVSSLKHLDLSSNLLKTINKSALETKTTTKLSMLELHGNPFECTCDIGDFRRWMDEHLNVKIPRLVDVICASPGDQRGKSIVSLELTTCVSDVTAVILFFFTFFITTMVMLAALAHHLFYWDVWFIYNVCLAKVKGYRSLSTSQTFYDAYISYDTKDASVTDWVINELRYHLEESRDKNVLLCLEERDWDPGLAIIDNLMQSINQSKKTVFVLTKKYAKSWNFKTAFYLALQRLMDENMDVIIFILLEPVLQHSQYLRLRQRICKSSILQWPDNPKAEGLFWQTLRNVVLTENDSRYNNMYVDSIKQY
Procedure, shortened: as §1

Row | Compound | IC50 (human TLR7) [nM] | IC50 (human TLR8) [nM]
1 | COc1ccc(-c2[nH]c3ccc(C4CCN(C(=O)CNC5CCC(O)CC5)CC4)cc3c2C(C)C)cc1OC (stereo not drawn) [Example 246, 1-(4-(2-(3,4-dimethoxyphenyl)-3-isopropyl-1H-indol-5-yl)piperidin-1-yl)-2-((4-hydroxycyclohexyl)amino)ethan-1-one] | 11 | 19
2 | COc1ccc(-c2[nH]c3ccc(C4CCN(C(=O)CN(C)CCO)CC4)cc3c2C(C)C)cc1OC [Example 242, 1-(4-(2-(3,4-dimethoxyphenyl)-3-isopropyl-1H-indol-5-yl)piperidin-1-yl)-2-((2-hydroxyethyl)(methyl)amino)ethan-1-one] | 23 | 14
3 | CCN(CC)C(=O)C1CCCN(C(=O)CN2CCC(c3ccc4[nH]c(-c5ccc(OC)c(OC)c5)c(C(C)C)c4c3)CC2)C1 (stereo not drawn) [Example 272, 1-(2-(4-(2-(3,4-dimethoxyphenyl)-3-isopropyl-1H-indol-5-yl)piperidin-1-yl)acetyl)-N,N-diethylpiperidine-3-carboxamide] | 83 | 37
4 | COc1ccc(-c2[nH]c3ccc(C4CCN(C(=O)CN5CCC[C@H](C(=O)N6CCC(N(C)C)CC6)C5)CC4)cc3c2C(C)C)cc1OC [Example 289, (S)-1-(4-(2-(3,4-dimethoxyphenyl)-3-isopropyl-1H-indol-5-yl)piperidin-1-yl)-2-(3-(4-(dimethylamino)piperidine-1-carbonyl)piperidin-1-yl)ethan-1-one] | 13 | 14
5 | COc1ccc(-c2[nH]c3ccc(C4CCN(C(=O)CNCC(N)=O)CC4)cc3c2C(C)C)cc1OC [Example 228, 2-((2-(4-(2-(3,4-dimethoxyphenyl)-3-isopropyl-1H-indol-5-yl)piperidin-1-yl)-2-oxoethyl)amino)acetamide] | 46 | 118
6 | COc1ccc(-c2[nH]c3ccc(C4CCN(C5C[C@H]6CC[C@@H](C5)N6C)CC4)cc3c2C)cc1OC (stereo partly drawn) [Example 21, 2-(3,4-dimethoxyphenyl)-3-methyl-5-(1-((1R,5S)-8-methyl-8-azabicyclo[3.2.1]octan-3-yl)piperidin-4-yl)-1H-indole] | 72 | 242
7 | COc1ccc(-c2[nH]c3ccc(C4CCN(C(=O)CN5CCC[C@@H](C(=O)N6CCN(C(C)C)CC6)C5)CC4)cc3c2C(C)C)cc1OC [Example 302, (R)-1-(4-(2-(3,4-dimethoxyphenyl)-3-isopropyl-1H-indol-5-yl)piperidin-1-yl)-2-(3-(4-isopropylpiperazine-1-carbonyl)piperidin-1-yl)ethan-1-one] | 40 | 18
8 | COc1ccc(-c2[nH]c3ccc(C4CCN(CC(=O)N5CC[C@H](O)C5)CC4)cc3c2C(C)C)cc1OC [Example 278, (S)-2-(4-(2-(3,4-dimethoxyphenyl)-3-isopropyl-1H-indol-5-yl)piperidin-1-yl)-1-(3-hydroxypyrrolidin-1-yl)ethan-1-one] | 8 | 11
9 | COc1ccc(-c2[nH]c3ccc(C4CCN(C(=O)CNC5CCCC5O)CC4)cc3c2C(C)C)cc1OC (stereo not drawn) [Example 236, 1-(4-(2-(3,4-dimethoxyphenyl)-3-isopropyl-1H-indol-5-yl)piperidin-1-yl)-2-((2-hydroxycyclopentyl)amino)ethan-1-one] | 29 | 38
10 | COc1ccc(-c2[nH]c3ccc(C4CCN(C(=O)CN5CCCC(C(=O)NC6CCN(C(C)C)CC6)C5)CC4)cc3c2C(C)C)cc1OC (single isomer, unassigned) [Example 280, 1-(2-(4-(2-(3,4-dimethoxyphenyl)-3-isopropyl-1H-indol-5-yl)piperidin-1-yl)-2-oxoethyl)-N-(1-isopropylpiperidin-4-yl)piperidine-3-carboxamide] | 26 | 22
11 | COc1ccc(-c2[nH]c3ccc(C4CCN(CC(=O)N[C@H]5CC[C@H](C(C)(C)O)CC5)CC4)cc3c2C(C)C)cc1OC [Example 279, 2-(4-(2-(3,4-dimethoxyphenyl)-3-isopropyl-1H-indol-5-yl)piperidin-1-yl)-N-((1r,4r)-4-(2-hydroxypropan-2-yl)cyclohexyl)acetamide] | 495 | 1160
12 | COc1ccc(-c2[nH]c3ccc(C4CCN(C(=O)C[C@H](C)N)CC4)cc3c2C(C)C)cc1OC [Example 253, (S)-3-amino-1-(4-(2-(3,4-dimethoxyphenyl)-3-isopropyl-1H-indol-5-yl)piperidin-1-yl)butan-1-one] | 10 | 19
13 | COc1ccc(-c2[nH]c3ccc(C4CCN(C(=O)CNCCC(C)O)CC4)cc3c2C(C)C)cc1OC (stereo not drawn) [Example 237, 1-(4-(2-(3,4-dimethoxyphenyl)-3-isopropyl-1H-indol-5-yl)piperidin-1-yl)-2-((3-hydroxybutyl)amino)ethan-1-one] | 15 | 22
14 | COc1ccc(-c2[nH]c3ccc(C4CCN(C(=O)CN5CCCC(C(=O)NC6CCN(C(C)C)CC6)C5)CC4)cc3c2C(C)C)cc1OC (single isomer, unassigned) [Example 281, 1-(2-(4-(2-(3,4-dimethoxyphenyl)-3-isopropyl-1H-indol-5-yl)piperidin-1-yl)-2-oxoethyl)-N-(1-isopropylpiperidin-4-yl)piperidine-3-carboxamide] | 17 | 20
15 | COc1ccc(-c2[nH]c3ccc(C4CCN(C(=O)CN5CCC[C@H](C(=O)N6CCCC6)C5)CC4)cc3c2C(C)C)cc1OC [Example 287, (S)-1-(4-(2-(3,4-dimethoxyphenyl)-3-isopropyl-1H-indol-5-yl)piperidin-1-yl)-2-(3-(pyrrolidine-1-carbonyl)piperidin-1-yl)ethan-1-one] | 38 | 33
16 | COc1ccc(-c2[nH]c3ccc(C4CCN(C(=O)CN[C@H]5CC[C@H](N)CC5)CC4)cc3c2C(C)C)cc1OC [Example 232, 2-(((1r,4r)-4-aminocyclohexyl)amino)-1-(4-(2-(3,4-dimethoxyphenyl)-3-isopropyl-1H-indol-5-yl)piperidin-1-yl)ethan-1-one] | 120 | 169
17 | COc1ccc(-c2[nH]c3ccc(C4CCN(C(=O)COC(C)C)CC4)cc3c2C(C)C)cc1OC [Example 314, 1-(4-(2-(3,4-dimethoxyphenyl)-3-isopropyl-1H-indol-5-yl)piperidin-1-yl)-2-isopropoxyethan-1-one] | 284 | 657
18 | COc1ccc(-c2[nH]c3ccc(C4CCN(C(=O)CNCCOCCO)CC4)cc3c2C(C)C)cc1OC [Example 230, 1-(4-(2-(3,4-dimethoxyphenyl)-3-isopropyl-1H-indol-5-yl)piperidin-1-yl)-2-((2-(2-hydroxyethoxy)ethyl)amino)ethan-1-one] | 19 | 18
